# Laboratory results taken from US8802597B2, “Herbicidal pyrimidines” (E I du Pont de Nemours and Company, priority 2003, dated 2014).
# Legend:
# Experiment in all cases: Test A pre/postemergence
# Format in all cases: in vivo
# [1] = test system: barnyardgrass (Echinochloa crus-galli)
# Method: (§1) Seeds of barnyardgrass (Echinochloa crus-galli), crabgrass (Digitaria sanguinalis), giant foxtail (Setaria faberi), morningglory (Ipomoea spp.), redroot pigweed (Amaranthus retroflexus) and velvetleaf (Abutilon theophrasti) were planted into a blend of loam soil and sand and treated preemergence with a directed soil spray using test chemicals formulated in a non-phytotoxic solvent mixture which included a surfactant. At the same time these species were also treated with postemergence applications of test chemicals formulated in the same manner.
# (§2) Plants ranged in height from 2 to 10 cm and were in the 1- to 2-leaf stage for the postemergence treatment. Treated plants and untreated controls were maintained in a greenhouse for approximately ten days, after which time all treated plants were compared to untreated controls and visually evaluated for injury. Plant response ratings, summarized in Table A, are based on a 0 to 100 scale where 0 is no effect and 100 is complete control. A dash (-) response means no test results.
# [2] = test system: crabgrass (Digitaria sanguinalis)
# Method: as §1, §2
# [3] = test system: redroot pigweed (Amaranthus retroflexus)
# Method: as §1, §2
# [4] = test system: morningglory (Ipomoea spp.)
# Method: as §1, §2
# [5] = test system: giant foxtail (Setaria faberi)
# Method: as §1, §2
# [6] = test system: velvetleaf (Abutilon theophrasti)
# Method: as §1, §2
# [7] = Postemergence, 125 g ai/ha, 0 to 100 scale (0 no effect, 100 complete control)
# [8] = Postemergence, 500 g ai/ha, 0 to 100 scale (0 no effect, 100 complete control)
# [9] = Preemergence, 125 g ai/ha, 0 to 100 scale where 0 is no effect and 100 is complete control, approximately ten days
# [10] = Preemergence, 500 g ai/ha, 0 to 100 scale where 0 is no effect and 100 is complete control, approximately ten days
SMILES,"Plant response rating, Barnyardgrass [1, 7]","Plant response rating, Barnyardgrass [1, 8]","Plant response rating, Barnyardgrass [1, 9]","Plant response rating, Barnyardgrass [1, 10]","Plant response rating, Crabgrass [2, 7]","Plant response rating, Crabgrass [2, 8]","Plant response rating, Crabgrass [2, 9]","Plant response rating, Crabgrass [2, 10]","Plant response rating, Pigweed [3, 7]","Plant response rating, Pigweed [3, 8]","Plant response rating, Pigweed [3, 9]","Plant response rating, Pigweed [3, 10]","Plant response rating, Morningglory [4, 7]","Plant response rating, Morningglory [4, 8]","Plant response rating, Morningglory [4, 9]","Plant response rating, Morningglory [4, 10]","Plant response rating, Foxtail, Giant [5, 7]","Plant response rating, Foxtail, Giant [5, 8]","Plant response rating, Foxtail, Giant [5, 9]","Plant response rating, Foxtail, Giant [5, 10]",also measured
CCOC(=O)c1nc(-c2cccc(Cl)c2)nc(N)c1Cl [Compound 100],0,10,5,0,0,0,10,0,10,25,20,0,40,55,0,0,0,0,0,0,"Plant response rating, Velvetleaf [6, 7]: 50; Plant response rating, Velvetleaf [6, 8]: 70; Plant response rating, Velvetleaf [6, 9]: 0; Plant response rating, Velvetleaf [6, 10]: 0"
CCOC(=O)c1nc(-c2cc(Br)cc(OC)c2)nc(N)c1Cl [Compound 101],0,0,0,0,0,0,0,0,0,5,0,0,0,0,0,0,0,0,0,0,"Plant response rating, Velvetleaf [6, 7]: 0; Plant response rating, Velvetleaf [6, 8]: 15; Plant response rating, Velvetleaf [6, 9]: 0; Plant response rating, Velvetleaf [6, 10]: 0"
CC(C)OC(=O)c1nc(-c2ccc(Cl)cc2)nc(N)c1Cl [Compound 102],0,0,0,0,10,10,0,0,50,65,10,15,0,15,0,0,0,0,0,0,"Plant response rating, Velvetleaf [6, 7]: 45; Plant response rating, Velvetleaf [6, 8]: 70; Plant response rating, Velvetleaf [6, 9]: 10; Plant response rating, Velvetleaf [6, 10]: 20"
CCOC(=O)c1nc(-c2ccc(OC(F)(F)F)cc2)nc(N)c1Cl [Compound 103],0,0,0,0,0,0,0,0,0,20,0,10,0,0,0,0,0,0,0,0,"Plant response rating, Velvetleaf [6, 7]: 45; Plant response rating, Velvetleaf [6, 8]: 70; Plant response rating, Velvetleaf [6, 9]: 0; Plant response rating, Velvetleaf [6, 10]: 10"
CCOC(=O)c1nc(-c2ccc(C(F)(F)F)cc2)nc(N)c1Cl [Compound 104],0,10,0,5,15,30,0,10,30,45,0,10,25,40,0,0,0,5,0,5,"Plant response rating, Velvetleaf [6, 7]: 70; Plant response rating, Velvetleaf [6, 8]: 80; Plant response rating, Velvetleaf [6, 9]: 0; Plant response rating, Velvetleaf [6, 10]: 10"
CCCOC(=O)c1nc(-c2ccc(Cl)cc2)nc(N)c1Cl [Compound 105],10,25,0,0,20,45,0,0,65,90,0,0,50,70,0,0,10,10,0,0,"Plant response rating, Velvetleaf [6, 7]: 85; Plant response rating, Velvetleaf [6, 8]: 95; Plant response rating, Velvetleaf [6, 9]: 0; Plant response rating, Velvetleaf [6, 10]: 0"
CCOC(=O)c1nc(-c2ccccc2F)nc(N)c1Cl [Compound 106],0,5,0,5,0,0,0,0,15,70,0,30,20,35,0,0,0,0,0,0,"Plant response rating, Velvetleaf [6, 7]: 25; Plant response rating, Velvetleaf [6, 8]: 55; Plant response rating, Velvetleaf [6, 9]: 5; Plant response rating, Velvetleaf [6, 10]: 30"
CCOC(=O)c1nc(-c2cccc(C(F)(F)F)c2)nc(N)c1Cl [Compound 107],0,0,0,0,0,5,0,5,10,10,0,0,0,0,0,0,0,35,0,0,"Plant response rating, Velvetleaf [6, 7]: 35; Plant response rating, Velvetleaf [6, 8]: 65; Plant response rating, Velvetleaf [6, 9]: 0; Plant response rating, Velvetleaf [6, 10]: 10"
CC(C)c1nc(N)c(Cl)c(C(=O)[O-])n1.[Na+] [Compound 109],0,10,0,25,0,10,0,25,60,85,50,80,70,80,30,95,0,10,0,5,"Plant response rating, Velvetleaf [6, 7]: 25; Plant response rating, Velvetleaf [6, 8]: 80; Plant response rating, Velvetleaf [6, 9]: 15; Plant response rating, Velvetleaf [6, 10]: 50"
